Experimental data reported in US5597801A, “Biocidal proteins” (priority 1991, dated 1997).
Where no end group is shown, it is not given here.

Experiments:
[1] = test system: Phytophthora infestans; type: cell-based
[2] = test system: Erwinia carotovora strain 3912; assay: Antibacterial activity assay (microspectrophotometry); type: cell-based; conditions: E carotovora; highest test concentration 500 μg/ml
[3] = test system: Sarcina lutea ATCC 9342; assay: as above; type: cell-based; conditions: S lutea; 24 hours of incubation at 28° C.
[4] = test system: Escherichia coli strain HB101; assay: as above; type: cell-based; conditions: E coli; for IC50 (antibacterial activity): Table 4, highest test concentration 500 μg/ml; for IC50 (activity on bacteria): Table 5
[5] = test system: B cinerea; assay: Effect of ions on antifungal activity (synthetic growth medium); type: cell-based, Botrytis cinerea; conditions: for increase of IC50 values by CaCl2 at 1 mM: reference medium + 1 mM CaCl2; for drop in specific activity at 5 mM CaCl2: reference medium + 5 mM CaCl2; for effect of KCl at 10 mM on the dose-response curves: reference medium + 10 mM KCl; for increase of IC50 values by KCl at 50 mM: reference medium + 50 mM KCl; for IC50 in reference medium: synthetic growth medium, 2.5 mM monovalent and 0.1 mM divalent cations
[6] = test system: Fusarium culmorum spores; type: cell-based; conditions: F culmorum spores; protein 2-4 fold below the IC50 value; light microscope
Text: During the course of screening many different plant species it has become evident that the protein class of the invention is fairly common in plant seeds. […] This is particularly evident when using Fusarium culmorum. The nature of the inhibition may also be characterized by the fact that it is very sensitive to the concentration of cations used in the assay.
This is readily visualised when Fusarium culmorum spores are used in the assay and at concentrations of the proteins which are 2-4 fold below the IC50 value.

[7] = test system: Bacillus megaterium ATCC 13632; assay: Antibacterial activity assay (microspectrophotometry); type: cell-based; conditions: B megaterium; 24 hours of incubation at 28° C.
[8] = Chitin-binding activity (chitin micro-column, SDS-PAGE of fractions); conditions: 50 μg on chitin micro-column; washed at pH 7, desorbed with 100 mM acetic acid (pH 2.8)
[9] = test system: Alternaria brassicola MUCL 20297; type: cell-based
[10] = test system: Botrytis cinerea MUCL 30158; type: cell-based
[11] = test system: Ascochyta pisi MUCL 30164; type: cell-based
[12] = test system: Colletotrichum lindemuthianum MUCL 9577; type: cell-based
[13] = test system: Cercospora beticola strain K897; type: cell-based
[14] = test system: Verticillium dahliae MUCL 19210; type: cell-based
[15] = test system: Fusarium culmorum spores; type: physicochemical; conditions: for antifungal activity after heat treatment at up to 80° C.: 10 minutes, F culmorum assay; for antifungal activity after reduction of disulphide bonds: reduction by DTE / dithiothreitol
Procedure: Tests for antifungal activity were performed with 20 μl samples diluted five-fold with growth medium containing Fusarium culmorum spores, according to the assay method given in Example 1. Untreated control samples consisted of the test proteins at 500 μg/ml in 10 mM sodium phosphat buffer (pH 7). For digestions, different proteases were added at 100 μg/ml and incubated at 37° C. for 16 hours. Heat stability tests were performed by heating aliquots of the test proteins for 10 minutes at different temperatures up to 100° C. pH stability was tested by incubation of test proteins for 1 hour in either 20 mM glycine-HCl (pH 2) or glycine-NaOH (pH 11) and subsequent dialysis for 16 hours against 10 mM sodium phosphate buffer (pH 7) using benzoylated cellulose tubing. Reduction of dishulphide bridges was done by addition of DTE at 30 mM and Tris-HCl (pH 8.6) at 300 mM. The reagents were removed by reversed-phase chromatography. For digestions, different proteases were added at 200 μg/ml and incubated at 37° C. for 3 hours.

[16] = test system: plant pathogenic fungi; type: cell-based
[17] = test system: Cladosporium sphaerospermum strain KO791; assay: Antifungal activity assay (growth inhibition, microspectrophotometry); type: cell-based; conditions: C sphaerospermum; medium B (medium A + 1 mM CaCl2, 50 mM KCl); 48 h
[18] = test system: Alternaria longipes strain CBS 620.83; assay: as above; type: cell-based; conditions: A longipes; medium B (medium A + 1 mM CaCl2, 50 mM KCl); 48 h

| Substance | IC50 (antibacterial activity) [2] | IC50 (antibacterial activity) [3] | IC50 (antibacterial activity) [4] | increase of IC50 values by CaCl2 at 1 mM [5] | drop in specific activity at 5 mM CaCl2 [5] | effect of KCl at 10 mM on the dose-response curves [5] | increase of IC50 values by KCl at 50 mM [5] | IC50 in reference medium [5] | morphological change of partially inhibited spores [6] | affinity toward chitin [8] | antifungal activity after heat treatment at up to 80° C. [15] | antifungal activity after reduction of disulphide bonds [15] | antifungal activity in high salt (medium B) [16] | IC50 (activity on bacteria) [4] | also measured |
| --- | --- | --- | --- | --- | --- | --- | --- | --- | --- | --- | --- | --- | --- | --- | --- |
| Ac-AMP1: antimicrobial protein from Amaranthus caudatus seeds, 29 residues, dimer of 3 kDa subunits (SEQ ID NO:5) (VGECVRGRCPSGMCCSQFGYCGKGPKYCG; cysteine pairing not given here; also: dimer of subunits) | no inhibition | 250 µg/mL | no inhibition | five to six-fold | more than 50 fold | did not significantly affect | about three-fold | 2.2 µg/mL | severe branching of the emerging hyphal tips | exhibit affinity toward chitin |  |  |  |  | IC50 (concentration required for 50% growth inhibition) [1]: 12; IC50 (antibacterial activity) [7]: 40 µg/mL |
| Ac-AMP2: antimicrobial protein from Amaranthus caudatus seeds, 30 residues, Ac-AMP1 plus carboxyl-terminal arginine (SEQ ID NO:6) (VGECVRGRCPSGMCCSQFGYCGKGPKYCGR) | no inhibition | 40 µg/mL | no inhibition | five to six-fold | more than 50 fold | did not significantly affect | about three-fold | 1.6 µg/mL |  | exhibit affinity toward chitin |  |  |  |  | IC50 (concentration required for 50% growth inhibition) [9]: 4; IC50 (concentration required for 50% growth inhibition) [10]: 8; IC50 (concentration required for 50% growth inhibition) [11]: 8; IC50 (concentration required for 50% growth inhibition) [12]: 8; IC50 (concentration required for 50% growth inhibition) [13]: 0.8; IC50 (concentration required for 50% growth inhibition) [14]: 5 |
| Bm-AMP1: antimicrobial protein purified from seeds of Briza maxima; may be a mixture of peptides varying at positions 9 and 23 (SEQ ID NO:16) |  |  |  |  |  |  |  |  |  |  | resistant | completely abolished | essentially abolished | > 800 µg/mL | number of fungi with IC50 value below 10 μg/ml [16]: six of the eight; IC50 Medium B [17]: > 500 µg/mL; IC50 Medium B [18]: > 500 µg/mL |
| Ca-AMP1: antimicrobial protein purified from seeds of Capsicum annuum (SEQ ID NO:15) (QEQCGNQAGGRACANRLCCSQYGYCGSTRAYCGVGCQSNCGR) |  |  |  |  |  |  |  |  | severe branching of the emerging hyphal tips | exhibits affinity to chitin | resistant | completely abolished | essentially abolished | > 800 µg/mL | antifungal activity after treatment with chymotrypsin ([15]; chymotrypsin): no affect on activity; reduction of antifungal activity after treatment with pronase E ([15]; pronase E): at least 10 fold; reduction of antifungal activity after treatment with proteinase K ([15]; proteinase K): at least 10 fold; reduction of antifungal activity after treatment with trypsin ([15]; trypsin): 2 fold; number of fungi with IC50 value below 50 μg/ml [16]: 12 of the 18 |
